Reference: BindingDB's records for doi:10.1016/j.bmcl.2014.03.017 (Alcon Laboratories, 2014)
pEC50: −log10 of the molar value.

Assay: Inhibition of ROCK-2 in human GTM3 cells measured up to 2 days by cell impedance assay

Compound	pEC50
CN(C)CC(O)CN1CCN(c2nc(-c3ccncc3)cnc2N2CCCC2)CC1 (configuration not stated)	5.82
CC(=O)NCC(O)CN1CCN(c2nc(-c3ccncc3)cnc2N2CCCC2)CC1 (configuration not stated)	5.77
CC(=O)NCCCN1CCN(c2nc(-c3ccncc3)cnc2N2CCCC2)CC1	6.12
c1nc(N2CCCC2)c(N2CCCNCC2)nc1-c1cc2cn[nH]c2cn1	6.38
c1cc2[nH]ncc2cc1-c1cncc(N2CCCNCC2)n1	6.59
Cc1n[nH]c2ccc(-c3cncc(N4CCCNCC4)n3)cc12	6.42
OCCN1CCN(c2nc(-c3ccncc3)cnc2N2CCCC2)CC1 [2-(4-(6-(pyridin-4-yl)-3-(pyrrolidin-1-yl)pyrazin-2-yl)piperazin-1-yl)ethanol]	6.17
